Here are results for 15 molecules from article PMC2442905 (British Journal of Pharmacology, 2008).

Structures are written as SMILES. Read-outs that look alike come from different tables or passages of the source.

The nature of series [1]: Drug concentrations in plasma of guinea-pigs. The conditions noted are these: anaesthetized guinea-pig. It is filed as in vivo.
The target in series [2] is T1, hERG potassium channels stably expressed in CHO-K1 cells (Homo sapiens, UniProt Q12809). Particulars: for hERG inhibition (in words): group C drugs: at the highest concentration permitted by solubility. Background: hERG is a cardiac potassium channel; its block is linked to QT prolongation.
T1 sequence (Q12809 whole entry): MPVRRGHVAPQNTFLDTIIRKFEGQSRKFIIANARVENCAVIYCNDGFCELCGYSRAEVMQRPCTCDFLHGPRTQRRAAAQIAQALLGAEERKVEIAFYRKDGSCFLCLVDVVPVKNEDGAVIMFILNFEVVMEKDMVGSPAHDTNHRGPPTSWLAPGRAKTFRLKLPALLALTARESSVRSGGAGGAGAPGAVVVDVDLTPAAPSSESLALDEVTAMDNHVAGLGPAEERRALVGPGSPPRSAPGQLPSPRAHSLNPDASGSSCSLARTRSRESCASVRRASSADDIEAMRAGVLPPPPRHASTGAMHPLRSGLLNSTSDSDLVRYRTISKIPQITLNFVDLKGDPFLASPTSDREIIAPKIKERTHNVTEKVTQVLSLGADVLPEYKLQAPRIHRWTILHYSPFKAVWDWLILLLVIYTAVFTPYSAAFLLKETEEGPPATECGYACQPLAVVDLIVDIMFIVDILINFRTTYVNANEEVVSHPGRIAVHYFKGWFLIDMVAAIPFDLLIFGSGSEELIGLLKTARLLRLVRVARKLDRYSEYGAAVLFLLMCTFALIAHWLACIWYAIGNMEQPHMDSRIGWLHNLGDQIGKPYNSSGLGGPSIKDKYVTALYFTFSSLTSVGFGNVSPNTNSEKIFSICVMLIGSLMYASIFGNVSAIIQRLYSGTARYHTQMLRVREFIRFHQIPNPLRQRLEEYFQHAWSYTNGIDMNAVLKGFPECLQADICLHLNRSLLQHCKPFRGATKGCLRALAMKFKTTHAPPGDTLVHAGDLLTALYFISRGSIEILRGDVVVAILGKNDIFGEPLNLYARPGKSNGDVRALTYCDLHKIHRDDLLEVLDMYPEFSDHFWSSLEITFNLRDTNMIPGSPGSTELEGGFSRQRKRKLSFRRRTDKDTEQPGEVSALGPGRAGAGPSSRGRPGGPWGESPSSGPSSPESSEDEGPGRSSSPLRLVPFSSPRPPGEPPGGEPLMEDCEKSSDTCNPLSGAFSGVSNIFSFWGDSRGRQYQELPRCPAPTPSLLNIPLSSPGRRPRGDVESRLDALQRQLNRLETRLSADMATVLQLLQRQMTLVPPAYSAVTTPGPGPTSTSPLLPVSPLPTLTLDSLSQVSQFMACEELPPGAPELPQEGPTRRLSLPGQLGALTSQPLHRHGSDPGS
Series [3] addresses T1, hERG potassium channels stably expressed in CHO-K1 cells. In words: cell-based. The conditions noted are these: 25 °C, 400-ms pulse protocol.
Series [4] relates to anaesthetized guinea-pigs (QTc interval of the ECG). In words: Anaesthetized guinea-pig QT. The series is classed as in vivo. Particulars: for QTc increase of 5% over vehicle (risk signal): low, medium and high doses; for increase (change) of baseline-corrected QTc over vehicle / mean baseline-corrected QTc: highest dose level; for increase (change) of baseline-corrected QTc over vehicle / mean baseline-corrected QTc / effect on QT/QTc interval in the guinea-pig model (in words): i.v. infusion over 10 min.

A further series deals with plasma proteins. Particulars: human; cited from earlier work.
For series [5] the following is noted: read-out: Human plasma Cmax; single 400 mg dose in humans; cited from earlier work.
Series [6] has as its system anaesthetized guinea-pigs. In words: Heart rate and mean blood pressure recordings in anaesthetized guinea-pigs. The series is classed as in vivo, guinea-pig. The conditions noted are these: limited the maximum dose to 3 mg kg^−1.

`CC(C)NCC(O)c1ccc(NS(C)(=O)=O)cc1` (racemic) [D,L-Sotalol]: the Peak plasma level was 18.2±1.5 (5) μm in series [1] (1 mg kg^−1 i.v. over 10 min), 41.3±4.8 (4) μm in series [1] (3 mg kg^−1 i.v. over 10 min) and 145.9±16.6 (5) μm in series [1] (10 mg kg^−1 i.v. over 10 min).
Consider `CC1(C)S[C@@H]2[C@H](NC(=O)[C@H](N)c3ccc(O)cc3)C(=O)N2[C@H]1C(=O)O` [Amoxicillin], for which the Peak plasma level in series [1] (3 mg kg^−1 i.v. over 10 min) is recorded as 4.8±0.5 (5) μm; in series [1] (10 mg kg^−1 i.v. over 10 min) it was 14.6±1.4 (4) μm; in series [1] (20 mg kg^−1 i.v. over 10 min) it was 30.3±2.5 (5) μm.
The term IC50 denotes the concentration at which inhibition is half-maximal. High values mean weaker potency, low ones greater potency. In the case of `CC(=O)Oc1ccccc1C(=O)O` [Aspirin], the “hERG inhibition (in words)” value in series [2] was “no hERG inhibition was observed”. The “Free safety margin (hERG IC50/ free Cmax)” value (“Free safety margin” below) in series [2] (hERG IC50 divided by human free plasma Cmax) is >4512; in series [2] (hERG IC50 divided by human free plasma Cmax, listed as aspirin), “above 300”. Also, the IC50 in series [3] was > 100000 µM. Moreover, the Peak plasma level is 31.1±2.3 (5) μm in series [1] (1 mg kg^−1 i.v. over 10 min), 74.6±2.1 (5) μm in series [1] (3 mg kg^−1 i.v. over 10 min) and 468±78 (4) μm in series [1] (10 mg kg^−1 i.v. over 10 min). Also, the “QTc increase of 5% over vehicle (risk signal)” value (“QTc increase of 5% over vehicle” below) in series [4] is on record as “did not reach the 5% increase of QTc”.
With `C[C@H](CS)C(=O)N1CCC[C@H]1C(=O)O` [Captopril], in series [2], the “hERG inhibition (in words)” value is “no hERG inhibition was observed”. For the same molecule, the Peak plasma level in series [1] (3 mg kg^−1 i.v. over 10 min) was 57.8±1.6 (2) μm. In addition, the Peak plasma level in series [1] (10 mg kg^−1 i.v. over 10 min) is recorded as 142±15 (2) μm. The Peak plasma level in series [1] (30 mg kg^−1 i.v. over 10 min) is 313±112 (2) μm. Also, in series [4], the “increase (change) of baseline-corrected QTc over vehicle” value (“increase (change)” below) is −7.3%, the “mean baseline-corrected QTc” value is reported as −6.0%, the “effect on QT/QTc interval in the guinea-pig model (in words)” value is recorded as “QTc actually dropped below vehicle” and the “QTc increase of 5% over vehicle” value is recorded as “did not reach the 5% increase of QTc”.
Take `COc1cc(N)c(Cl)cc1C(=O)NC1CCN(CCCOc2ccc(F)cc2)CC1OC` (stereo not shown) [Cisapride]: the Peak plasma level in series [1] (0.1 mg kg^−1 i.v. over 10 min) was 0.037±0.023 (4) μm; in series [1] (0.3 mg kg^−1 i.v. over 10 min), 0.129±0.032 (4) μm; in series [1] (1 mg kg^−1 i.v. over 10 min), 0.496±0.085 (5) μm.
Turning to `O=C(CCCN1CC=C(n2c(=O)[nH]c3ccccc32)CC1)c1ccc(F)cc1` [Droperidol], the Peak plasma level in series [1] (0.03 mg kg^−1 i.v. over 10 min) is 0.55±0.07 (3) μm; in series [1] (0.1 mg kg^−1 i.v. over 10 min), 0.62±0.05 (5) μm; in series [1] (0.3 mg kg^−1 i.v. over 10 min), 1.21±0.34 (5) μm.
For `O=C(CCCN1CCC(O)(c2ccc(Cl)cc2)CC1)c1ccc(F)cc1` [Haloperidol], in series [2] (human, pH 7.4), the “Free safety margin” value is listed as 1.4 and the “Total safety margin (hERG IC50/ total Cmax)” value (shortened to “Total safety margin”) is listed as 0.1. In addition, the Protein binding with plasma proteins is given as 90%.
In general, Cmax refers to the maximum level reached in the sampled fluid or tissue. Take `COc1c(N2C[C@@H]3CCCN[C@@H]3C2)c(F)cc2c(=O)c(C(=O)O)cn(C3CC3)c12` [Moxifloxacin]: in series [5], the Cmax is ~7 µM. The Peak plasma level in series [1] (1 mg kg^−1 i.v. over 10 min) was 2.08±0.28 (4) μm. Besides, the Peak plasma level in series [1] (5 mg kg^−1 i.v. over 10 min) is 30.6±7.2 (4) μm. In series [1] (10 mg kg^−1 i.v. over 10 min), the Peak plasma level was 80.5±4.0 (5) μm. In addition, in series [4], the “increase (change)” value was 16.8%, the “mean baseline-corrected QTc” value was 18.3% and the “effect on QT/QTc interval in the guinea-pig model (in words)” value is “dose-dependent QTc prolongation”.
On to `CC(C)NCC(O)COc1cccc2ccccc12` (stereo not shown) [Propranolol], for which the Protein binding in the series with plasma proteins was 85%. The Peak plasma level in series [1] (0.3 mg kg^−1 i.v. over 10 min) was 0.50±0.03 (3) μm; in series [1] (1 mg kg^−1 i.v. over 10 min), 1.84±0.41 (3) μm; in series [1] (3 mg kg^−1 i.v. over 10 min) it was 4.65±0.40 (5) μm. In addition, in series [4], the “QTc increase of 5% over vehicle” value is reported as “did not reach the 5% increase of QTc”.
In the case of `C=C[C@H]1C[N@@]2CC[C@H]1C[C@@H]2[C@@H](O)c1ccnc2ccc(OC)cc12` [Quinidine], the values for the Peak plasma level in series [1] (3 mg kg^−1 i.v. over 10 min) and in series [1] (10 mg kg^−1 i.v. over 10 min) were 6.2±0.08 (3) μm and 27.8±8.0 (5) μm, respectively.
With `C[C@@H]1CN(c2c(F)c(N)c3c(=O)c(C(=O)O)cn(C4CC4)c3c2F)C[C@H](C)N1` [Sparfloxacin], the “Free safety margin” value in series [2] (human, pH 7.4) worked out at 3.757. Also, the “Total safety margin” value in series [2] (human, pH 7.4) is 2.477. This molecule also showed an IC50 in series [3] of 24 µM. In addition, the Peak plasma level in series [1] (3 mg kg^−1 i.v. over 10 min) is recorded as 23.5±4.2 (3) μm; in series [1] (10 mg kg^−1 i.v. over 10 min), 80.4±9.1 (5) μm; in series [1] (30 mg kg^−1 i.v. over 10 min), 159.4±22.4 (4) μm. In addition, the “increase (change)” value in series [4] worked out at 19.6%. Also, the “mean baseline-corrected QTc” value in series [4] was 20.0%.
Turning to `CC/C(=C(\c1ccccc1)c1ccc(OCCN(C)C)cc1)c1ccccc1` [Tamoxifen], the figures for the Peak plasma level in series [1] (3 mg kg^−1 i.v. over 10 min), in series [1] (10 mg kg^−1 i.v. over 10 min) and in series [1] (30 mg kg^−1 i.v. over 10 min) were 3.8±0.8 (4) μm, 10.5±2.1 (5) μm and 60.0±20.0 (5) μm, respectively. In addition, the “mean baseline-corrected QTc” value in series [4] came out at 8.4%.
In the case of `CC(C)(C)c1ccc(C(O)CCCN2CCC(C(O)(c3ccccc3)c3ccccc3)CC2)cc1` (stereo not shown) [Terfenadine], in series [6], the “haemodynamic effects (in words)” value is “marked bradycardia and resultant hypotension”.
As for `COc1ccc(CCN(C)CCCC(C#N)(c2ccc(OC)c(OC)c2)C(C)C)cc1OC` (stereo not shown) [Verapamil], in series [4], the “QTc increase of 5% over vehicle” value is recorded as “did not reach the 5% increase of QTc”.
`O=C1Cc2cc(CCN3CCN(c4nsc5ccccc45)CC3)c(Cl)cc2N1` [Ziprasidone]: the “Free safety margin” value in series [2] (human, pH 7.4) was determined as 286.45. Further, the “Total safety margin” value in series [2] (human, pH 7.4) is recorded as 0.573. The Peak plasma level is 1.1±0.2 (4) μm in series [1] (0.1 mg kg^−1 i.v. over 10 min), 1.2±0.1 (2) μm in series [1] (0.3 mg kg^−1 i.v. over 10 min) and 4.0±2.2 (2) μm in series [1] (1 mg kg^−1 i.v. over 10 min).
